Reference: PMC4769301, “Affinity Enhancement by Ligand Clustering Effect Inspired by Peptide Dendrimers−Shank PDZ Proteins Interactions” (PLoS ONE, 2016)
Several values for one entry are separate records, joined by “and”; a condition that tells them apart may be missing. Identical values can stand only once. Like-named read-outs stand apart in the source and are kept apart here. Numbered stars: 1 amine (or outer) side, 2 acyl side, 3 side chain; on linkers, the order of the positions; unused ones are H or OH. Bridge positions count the residues as written; N and C are the ends. Ends that are not written are not given here. Peptide text beside a SMILES is read from it. I, II: the chains in the order shown. X1 = O=C1CC([*:1])C(=O)N1CCN(CCN1C(=O)CC([*:2])C1=O)CCN1C(=O)CC([*:3])C1=O; X3 = O=C1CC([*:1])C(=O)N1CCOCCOCCOCCN1C(=O)CC([*:2])C1=O; X2 = O=C1CC([*:1])C(=O)N1CCOCCOCCN1C(=O)CC([*:2])C1=O

T1: Shank1 PDZ (Rattus norvegicus, UniProt Q9WV48)
T1 construct: His tag; made in house; host or cells: E. coli BL21
T1 sequence (Q9WV48 653-765): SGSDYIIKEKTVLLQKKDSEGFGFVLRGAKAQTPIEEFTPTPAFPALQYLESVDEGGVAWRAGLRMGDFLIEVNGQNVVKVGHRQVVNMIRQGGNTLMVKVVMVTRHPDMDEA

T2: Shank3 PDZ (Mus musculus, UniProt Q4ACU6)
T2 construct: His tag; made in house; host or cells: E. coli BL21
T2 sequence (Q4ACU6 533-665): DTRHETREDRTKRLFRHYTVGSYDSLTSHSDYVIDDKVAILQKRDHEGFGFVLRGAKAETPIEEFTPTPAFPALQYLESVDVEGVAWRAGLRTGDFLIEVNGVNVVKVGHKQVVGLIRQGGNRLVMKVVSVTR

T3: p1 (monomeric βPIX peptide) (Rattus norvegicus)
T3 chain: CGSSGDPAWDETNL

T4: p2 (dimeric peptide, BM(PEG)2) (also: dimer via Cys-BM(PEG)2 linker)
T4 chain: Ac-CGSSGDPAWDETNL

T5: dimeric peptide BM(PEG)3 (also: dimer via Cys-BM(PEG)3 linker)
T5 chain: Ac-CGSSGDPAWDETNL

T6: p3 (trimeric peptide, TMEA) (also: trimer via Cys-TMEA linker)
T6 chain: Ac-CGSSGDPAWDETNL


Columns and labels:
Shank1 PDZ [1] = target: T1, Shank1 PDZ; test: Isothermal titration calorimetry, Shank1 PDZ; format: binding
Description: (§1) Gene encoding the Shank1 PDZ (Swiss-Prot accession number Q9WV48.1, residues 653–765) was synthesized by GenScript Inc., and digested by Nde I and Xho I restriction enzymes and ligated into pET28a vector to generate pET28-Shank1 PDZ plasmid (S1A Fig). The plasmid pET.M.3C Shank3 PDZ (Swiss-Prot accession number Q4ACU6.3, residues 533–665) was a gift from Prof. Mingjie Zhang’s group from Division of Life Science, Hong Kong University of Science and Technology. The recombinant plasmid pET28-Shank1 PDZ and pET.M.3C Shank3 PDZ were transformed into E. coli BL21 cells for protein production. Mono-clones were pre-cultured overnight at 37°C, and then cultures were added to new media, shaken at 37 °C until optical density at 600 nm reached 0.6–0.8. Then isopropyl β-D-1-thiogalactopyranoside was added at final concentration 1 mM to induce protein overexpression, the culture was shaken overnight at 16°C.
(§2) Prior to use, lyophilized peptides were dissolved in the storage buffer (50 mM sodium phosphate, 200 mM NaCl, pH 7.4). All the peptides and protein solution were filtered through 0.1 μm membrane, and their concentrations were adjusted according to experiments requirement: except for the binding pair p1 ligand and Shank1 PDZ, the proteins concentration were between 30–40 μM, ligands concentration were between 300–400 μM; and for the binding pair p1 ligand and Shank1 PDZ, the affinity was very low so that protein concentration was adjusted to about 315 μM and p1 ligand concentration was adjusted to about 3.14 mM to get accuracy affinity data. All the solutions were extensively degassed just before titration. Titrations were performed at 25°C by MicroCal VP-ITC (Malvern), and data were analyzed by Origin software (Origin Lab) and fitted to single-binding-site model.

Shank3 PDZ = target: T2, Shank3 PDZ; test: Isothermal titration calorimetry, Shank3 PDZ; format: binding
Description: as §1, §2

Shank1 PDZ [2] = target: T1, Shank1 PDZ; test: Native mass spectrometry, Shank1 PDZ; format: binding; conditions: for complexes with higher stoichiometry such as 2:1 or 3:1: native MS, protein/peptide ratio 4:1, protein in excess, within the detection limit of native MS
Experimental: Prior to the experiment, the protein solution was extensively dialyzed at 4°C against 150mM ammonium acetate. During the dialysis, Shank1 PDZ yielded no precipitate, while Shank3 PDZ was largely precipitated out. Increasing the concentration of ammonium acetate to 200–500 mM couldn’t alleviate precipitation. Lyophilized peptides were also dissolved in the 150 mM ammonium acetate. All the peptides and protein solution were filtered through 0.1 μm membrane, and their concentrations were adjusted according to experiments requirement. The protein and peptide were mixed as the corresponding ratio and incubated at room temperature for 20 minutes.
Positive ion electrospray ionization mass spectra were acquired on a Micromass Q-Tof micro mass spectrometer (Waters), with a nanoESI source using EconoTips. The capillary voltage was adjusted in the range of 1.2–2.2 kV until optimal ion signals were obtained. The cone voltage of the Q-TOF was set at 20 V, and the ion source temperature was set at 40°C.

Shank1 PDZ [3] = target: T1, Shank1 PDZ; test: Surface plasmon resonance, immobilized Shank1 PDZ; format: binding; conditions: for kon: pH 7.4, read-out: association rate constant kon; for koff: pH 7.4, read-out: dissociation rate constant koff
Experimental: Prior to use, lyophilized peptides were dissolved in the storage buffer (50 mM sodium phosphate, 200 mM NaCl, pH 7.4) at high concentration and diluted to required concentration using running buffer (HBS-EP: 0.01 M HEPES pH 7.4, 0.15 M NaCl, 3 mM EDTA, 0.005% v/v Surfactant P20). All the peptides and protein solution were filtered through 0.1 μm membrane, and their concentrations were adjusted according to experiments requirement: for ligand p1, concentration series of 10.8 μM, 21.6 μM, 43.2 μM, 86.5μM, 173μM, 346μM were used; for ligand p2, concentrations series of 10 μM, 20 μM, 40 μM, 80 μM, 160 μM, 320 μM were used; for ligand p3, concentrations series of 2.63 μM, 5.27 μM, 10.5 μM, 21.1 μM, 42.1 μM, 84.3 μM were used. All sample solution and running buffer were extensively degassed just before titration. Shank1 PDZ protein was coupled on CM5 chip using EDC/NHS method.
Running were performed at 25°C on Biacore 3000 (GE), and data were processed by BIAevaluation software and fitted to steady state affinity model and 1:1 Langmuir binding model. 1:1 Langmuir binding model which show kinetics data was analyzed by BIAevaluation software. Steady state affinity model which show affinity data was analyzed by Origin software using the following equation: Req=KACRmax/1+KACn

[4] = target: T3, p1 (monomeric βPIX peptide); test: ITC
[5] = target: T4, p2 (dimeric peptide, BM(PEG)2); test: ITC
dimeric peptide BM(PEG)3 = target: T5, dimeric peptide BM(PEG)3; test: ITC
[6] = target: T6, p3 (trimeric peptide, TMEA); test: ITC
[7] = target: T3, p1 (monomeric βPIX peptide); test: native MS
[8] = target: T4, p2 (dimeric peptide, BM(PEG)2); test: native MS
[9] = target: T6, p3 (trimeric peptide, TMEA); test: native MS
[10] = target: T4, p2 (dimeric peptide, BM(PEG)2); test: SPR kinetics
[11] = target: T6, p3 (trimeric peptide, TMEA); test: SPR kinetics
[12] = target: T3, p1 (monomeric βPIX peptide); test: SPR steady state
[13] = target: T4, p2 (dimeric peptide, BM(PEG)2); test: SPR steady state
[14] = target: T6, p3 (trimeric peptide, TMEA); test: SPR steady state
[15] = target: T4, p2 (dimeric peptide, BM(PEG)2); test: ITC (diluted ligand)
[16] = target: T6, p3 (trimeric peptide, TMEA); test: ITC (diluted ligand)

Kd [4] [µM]	Kd [5] [µM]	Kd [6] [µM]	Molecule	Kd (Shank1 PDZ [1])	Kd (Shank3 PDZ) [µM]	Kd (Shank1 PDZ [2]) [µM]	complexes with higher stoichiometry such as 2:1 or 3:1 (Shank1 PDZ [2])	kon (Shank1 PDZ [3]) [M⁻¹ s⁻¹]	koff (Shank1 PDZ [3]) [s⁻¹]	also measured
–	–	–	I: Ac-CGSSGDPAWDETNL-OH / II: Ac-CGSSGDPAWDETNL-OH / III: Ac-CGSSGDPAWDETNL-OH (linker I:1-II:1-III:1 via X1) [p3]	8.1 µM and 6.5 µM	1.9 ± 0.1	~4.5	not observed	78900	0.353	difference in kon (Shank1 PDZ [3]; SPR, 1:1 Langmuir binding model, ligand p3 compared with ligand p2): about 1.2 fold
–	–	–	GSGSGDPAWDETNL-OH [p1]	–	–	–	–	–	–	Kd (Shank1 PDZ [1]; MicroCal VP-ITC, 25°C, 50 mM sodium phosphate, 200 mM NaCl, pH 7.4, single-binding-site model, [p1] = 4 mM/[Shank1 PDZ] = 400 μM, [p2] = 326 μM/43 μM, [p3] = 354 μM/35 μM (Fig 3A), read-out: dissociation constant Kd (ITC)): 41 ± 1 µM; Kd (Shank3 PDZ; MicroCal VP-ITC, 25°C, 50 mM sodium phosphate, 200 mM NaCl, pH 7.4, single-binding-site model, [p1] = 406 μM/[Shank3 PDZ] = 40 μM, [p2] = 400 μM/30 μM, [p3] = 315 μM/34 μM, read-out: Kd (ITC)): 24 ± 2 µM; Kd (Shank1 PDZ [2]; rough estimation from peak intensities, 1:1 mixture, 150 mM ammonium acetate, 65 μM each, gas-phase measurement, read-out: dissociation constant estimated from native MS peak intensity): ~13 µM; Kd (Shank1 PDZ [3]; Biacore 3000, 25°C, HBS-EP pH 7.4, Shank1 PDZ coupled on CM5 chip, steady state affinity model, n = 1, read-out: dissociation constant (SPR, steady state affinity model)): 45 ± 6 µM
–	–	–	CC(=O)N[C@@H](CSC1CC(=O)N(CCOCCOCCOCCN2C(=O)CC(SC[C@H](NC(C)=O)C(=O)NCC(=O)N[C@@H](CO)C(=O)N[C@@H](CO)C(=O)NCC(=O)N[C@@H](CC(=O)O)C(=O)N3CCC[C@H]3C(=O)N[C@@H](C)C(=O)N[C@@H](Cc3c[nH]c4ccccc34)C(=O)N[C@@H](CC(=O)O)C(=O)N[C@@H](CCC(=O)O)C(=O)N[C@H](C(=O)N[C@@H](CC(N)=O)C(=O)N[C@@H](CC(C)C)C(=O)O)[C@@H](C)O)C2=O)C1=O)C(=O)NCC(=O)N[C@@H](CO)C(=O)N[C@@H](CO)C(=O)NCC(=O)N[C@@H](CC(=O)O)C(=O)N1CCC[C@H]1C(=O)N[C@@H](C)C(=O)N[C@@H](Cc1c[nH]c2ccccc12)C(=O)N[C@@H](CC(=O)O)C(=O)N[C@@H](CCC(=O)O)C(=O)N[C@H](C(=O)N[C@@H](CC(N)=O)C(=O)N[C@@H](CC(C)C)C(=O)O)[C@@H](C)O (some centres unmarked) [dimeric peptide BM(PEG)3] (I: Ac-CGSSGDPAWDETNL-OH / II: Ac-CGSSGDPAWDETNL-OH; linker I:1-II:1 via X3)	13.7 ± 0.7 µM	–	–	–	–	–	–
–	–	–	CC(=O)N[C@@H](CSC1CC(=O)N(CCOCCOCCN2C(=O)CC(SC[C@H](NC(C)=O)C(=O)NCC(=O)N[C@@H](CO)C(=O)N[C@@H](CO)C(=O)NCC(=O)N[C@@H](CC(=O)O)C(=O)N3CCC[C@H]3C(=O)N[C@@H](C)C(=O)N[C@@H](Cc3c[nH]c4ccccc34)C(=O)N[C@@H](CC(=O)O)C(=O)N[C@@H](CCC(=O)O)C(=O)N[C@H](C(=O)N[C@@H](CC(N)=O)C(=O)N[C@@H](CC(C)C)C(=O)O)[C@@H](C)O)C2=O)C1=O)C(=O)NCC(=O)N[C@@H](CO)C(=O)N[C@@H](CO)C(=O)NCC(=O)N[C@@H](CC(=O)O)C(=O)N1CCC[C@H]1C(=O)N[C@@H](C)C(=O)N[C@@H](Cc1c[nH]c2ccccc12)C(=O)N[C@@H](CC(=O)O)C(=O)N[C@@H](CCC(=O)O)C(=O)N[C@H](C(=O)N[C@@H](CC(N)=O)C(=O)N[C@@H](CC(C)C)C(=O)O)[C@@H](C)O (some centres unmarked) [p2] (I: Ac-CGSSGDPAWDETNL-OH / II: Ac-CGSSGDPAWDETNL-OH; linker I:1-II:1 via X2)	16.6 µM and 18 µM	5.9 ± 0.4	~5.3	not observed	65200	1.12	–
41	16.6	8.1	Shank1 PDZ 653-765 (protein) SGSDYIIKEKTVLLQKKDSEGFGFVLRGAKAQTPIEEFTPTPAFPALQYLESVDEGGVAWRAGLRMGDFLIEVNGQNVVKVGHRQVVNMIRQGGNTLMVKVVMVTRHPDMDEA	–	–	–	–	–	–	Kd (dimeric peptide BM(PEG)3): 13.7 µM; Kd [7]: ~13 µM; Kd [8]: ~5.3 µM; Kd [9]: ~4.5 µM; Kd [10]: 17.1 µM; Kd [11]: 4.48 µM; Kd [12]: 45 µM; Kd [13]: 19 µM; Kd [14]: 6 µM; Kd [15]: 18 µM; Kd [16]: 6.5 µM
24	5.9	1.9	Shank3 PDZ 533-665 (protein) DTRHETREDRTKRLFRHYTVGSYDSLTSHSDYVIDDKVAILQKRDHEGFGFVLRGAKAETPIEEFTPTPAFPALQYLESVDVEGVAWRAGLRTGDFLIEVNGVNVVKVGHKQVVGLIRQGGNRLVMKVVSVTR	–	–	–	–	–	–	–
